Experiments:
MEF cells = conditions: cited from earlier work
[1] = test system: Neural progenitor cells (NPCs); conditions: NPC reprogramming, Shi et al. 2008; cited from earlier work
[2] = test system: MEFs transduced with Oct4, Sox2 and Klf4; assay: Reprogramming of MEFs transduced by Oct4, Sox2 and Klf4 (AP-positive / Oct4-GFP-positive colonies); format: cell-based, mouse
Source text: FIG. 1. CHIR99021 promoted the reprogramming of MEFs transduced by Oct4, Sox2 and Klf4. MEFs from 129 strain were transduced with Oct4, Sox2 and Klf4 by retroviruses, and treated the next day with increasing concentrations of CHIR99021 for two week. Three weeks later, AP was detected by staining cells in monolayer (A). […] After 3 weeks of treatment, the GFP positive colonies in each well were counted (B).
Cell Culture and Viral Transduction: MEFs were derived from 12952/SvPasCrlf and ROSA26^+/−/OG2^+/− mice according to the protocol reported on WiCell Research Institute website: “Introduction to human embryonic stem cell culture methods”. ROSA26^+/−/OG2^+/− transgenic mice carry GFP reporter gene under the control of the Oct4 promoter (Oct4-GFP) and the ubiquitously expressed neo/lacZ transgene [Do J T, Scholer H R, Stem Cells, 22:941-949 (2004)]. Animal experiments were performed according to the Animal Protection Guidelines of the Max Planck Institute for Biomolecular Research, Germany. […] MEFs transduced with Oct4/Klf4/Sox2 (1×10^4 cells/well together with 10^5 cells/well CF1 feeders in 6-well plates) were then treated with GSK-3 inhibitor CHIR99021 (Stemgent) for two weeks, and EGFP positive colonies were picked up at the third week after treatment. MEFs transduced with Oct4/Klf4 (1×10^5 cells/well in 6-well plates) were treated with 10 μM CHIR99021 for four weeks, GFP positive colonies were picked up and expanded at the fourth to fifth week after treatment.
Cytochemistry and Immunofluorescence Assay: Alkaline Phosphatase staining was performed according to the manufacturer's protocol using the Alkaline Phosphatase Detection Kit (Millipore). For immunofluorescence assay, cells were fixed in 4% paraformaldehyde for 10 minutes and washed three times with PBS containing 0.1% Triton X-100 (Sigma-Aldrich). The fixed cells were then incubated in blocking buffer, 0.1% Triton X-100 and 10% normal donkey serum (Jackson ImmunoResearch Laboratories Inc) in PBS (Invitrogen/Gibco BRL), for 30 min at room temperature. […]

[3] = test system: Sox2 and Oct4 expression in MEFs; assay: Real-time PCR of pluripotency gene expression in untransduced MEFs after treatment; format: cell-based, mouse; conditions: 10 μM CHIR99021, three days
Source text: FIG. 2. […] Scale bars, 20μm. […] PCR analysis: […] The primer for viral Klf4 was [NT] and [NT]. The primer for FGF-4 was [NT] and [NT].

Compound: Nc1ncn([C@@H]2O[C@H](CO)[C@@H](O)[C@H]2O)c(=O)n1 [5-AZA]
- improvement of reprogramming efficiency (MEF cells): up to 4 folds

Compound: COc1cc2nc(N3CCCN(C)CC3)nc(NC3CCN(Cc4ccccc4)CC3)c2cc1OC [BIX-01294]
- enhancement of reprogramming efficiency [1]: over 8 fold

Compound: Cc1c[nH]c(-c2cnc(NCCNc3ccc(C#N)cn3)nc2-c2ccc(Cl)cc2Cl)n1 [CHIR99021]
- concentration showing the greatest effects on reprogramming ([2]; Oct4/Sox2/Klf4-transduced ROSA26+/-/OG2+/- MEFs): about 10 μM
- reprogramming efficiency (GFP-positive colonies) of transduced MEFs ([2]; about 10 μM CHIR99021, treated two weeks, counted after 3 weeks, without compound 0.03-0.08%): 0.2-0.4%
- number of AP-positive mESC-like colonies ([2]; treated two weeks, AP staining at third week after treatment): significantly increased the number of alkaline phosphase (AP)-positive mESC-like colonies in a dose-dependent manner
- induction of Sox2 and Oct4 expression in MEFs (real-time PCR) [3]: did not induce the expression of Sox2 and Oct4
